Measurements taken from ChEMBL document CHEMBL5137077, “Peptide-to-Small Molecule: A Pharmacophore-Guided Small Molecule Lead Generation Strategy from High-Affinity Macrocyclic Peptides” (J Med Chem, 2022).
Positions of bridges follow the written chain, without caps; N, C: chain ends. Non-standard residues stand in square brackets, D forms with d. Residues, ends and D or L forms follow the SMILES beside them. Phe(4-CONH2) = NC(=O)c1ccc(C[C@H](N)C(=O)O)cc1; NHexGly = CCCCCCNCC(=O)O; Sar = CNCC(=O)O

Experiments:
[1] = molecular target: T1, Nicotinamide N-methyltransferase (Homo sapiens, UniProt P40261); assay: Inhibition of N-terminal 6His-tagged full length human recombinant NNMT (1 to 264 residues) expressed in Escherichia coli BL21 (DE3) cells using S-adenosyl-L-methionine and NAM as substrate incubated for 22 to 24 hrs by RapidFire Mass Spectrometry
T1 sequence (P40261 whole entry): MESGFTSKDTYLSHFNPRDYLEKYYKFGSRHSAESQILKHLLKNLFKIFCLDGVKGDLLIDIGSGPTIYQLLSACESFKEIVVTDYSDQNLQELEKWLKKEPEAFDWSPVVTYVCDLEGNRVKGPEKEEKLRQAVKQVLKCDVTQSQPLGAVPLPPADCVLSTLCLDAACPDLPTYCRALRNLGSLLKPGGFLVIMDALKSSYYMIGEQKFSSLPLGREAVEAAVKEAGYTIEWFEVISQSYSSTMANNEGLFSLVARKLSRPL

[2] = molecular target: Indolethylamine N-methyltransferase (Homo sapiens, UniProt O95050); assay: Inhibition of N-terminal 6His-tagged full length human recombinant INMT (1 to 263 residues) expressed in Escherichia coli BL21 (DE3) cells using S-(5'-Adenosyl)-L-methionine chloride dihydrochloride and 9H-pyrido[3,4-b]indole as substrate incubated for 2.5 hrs by MTase-Glo assay
[3] = molecular target: T1, Nicotinamide N-methyltransferase; assay: Inhibition of N-terminal 6His-tagged full length human recombinant NNMT (1 to 264 residues) expressed in Escherichia coli BL21 (DE3) cells using S-adenosyl-L-methionine and NAM as substrate incubated for 2 hrs by RapidFire Mass Spectrometry
[4] = molecular target: T1, Nicotinamide N-methyltransferase; assay: Inhibition of NNMT in HEK293 cells measured after 20 to 24 hrs by RapidFire Mass Spectrometry; format: cell-based
HEK293 = assay: Cytotoxicity against HEK293 cells assessed as reduction in ATP incubated for 10 mins by CellTiter-Glo luminescence assay; format: toxicity, cell-based; conditions: human, hek293, 10 min

Sequence of Indolethylamine N-methyltransferase (O95050 whole entry, the tested form may be a part): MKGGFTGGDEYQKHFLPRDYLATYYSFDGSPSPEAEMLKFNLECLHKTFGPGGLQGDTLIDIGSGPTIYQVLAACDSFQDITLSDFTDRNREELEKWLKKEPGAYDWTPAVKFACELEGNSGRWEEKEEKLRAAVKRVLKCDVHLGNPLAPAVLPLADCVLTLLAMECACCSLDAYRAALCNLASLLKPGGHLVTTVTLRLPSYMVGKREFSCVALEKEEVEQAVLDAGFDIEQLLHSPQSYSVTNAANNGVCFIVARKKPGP

IC50 [1] | IC50 [2] | SMILES | also measured
– | > 100 µM | Cc1ccc2c(c1)cc([C@H]1C[C@H](n3ccnc3CN)CN1C(=O)c1cnc3[nH]ccc3c1)n2Cc1ccc(Cl)cc1 | –
– | > 100 µM | NCc1nccn1[C@H]1C[C@H](c2nc3ccccc3n2Cc2ccccc2)N(C(=O)c2cnc3[nH]ccc3c2)C1 | –
> 100 µM | – | CCCCCCN1CC(=O)N[C@@H](Cc2c[nH]c3ccccc23)C(=O)N2CCC[C@H]2C(=O)N[C@H](C(N)=O)CSCC(=O)N[C@@H](Cc2ccccc2)C(=O)N[C@@H](Cc2ccc(C(N)=O)cc2)C(=O)N[C@@H](C)C(=O)NCC1=O ({CH2CO}-F[Phe(4-CONH2)]AG[NHexGly]WPC-NH2; thioether N-8) | –
– | > 100 µM | Cc1ccc2c(c1)cc([C@H]1C[C@H](n3nc(C)cc3CN)CN1C(=O)c1cnc3[nH]c(C)cc3c1)n2Cc1ccc(Cl)cc1 | CC20 (HEK293): > 10 µM

Further lines, the compound ahead of its results:

SMILES | IC50 [1] | IC50 [2] | also measured
C[C@@H]1NC(=O)CNC(=O)[C@H](CCCNC(=N)N)NC(=O)[C@H](Cc2ccc(C(N)=O)cc2)NC(=O)[C@H](Cc2ccccc2)NC(=O)CSC[C@@H](C(N)=O)NC(=O)[C@@H]2CCCN2C(=O)[C@H](Cc2c[nH]c3ccccc23)NC1=O ({CH2CO}-F[Phe(4-CONH2)]RGAWPC-NH2; thioether N-8) | > 100 µM | – | –
Nc1ncnc2c1ncn2[C@@H]1O[C@H](C[C@@H](N)CC[C@H](N)C(=O)O)[C@@H](O)[C@H]1O [SINEFUNGIN] | – | 4 µM | IC50 [3]: 5.2 µM; IC50 [4]: > 100 µM
CN1CC(=O)N[C@@H](Cc2c[nH]c3ccccc23)C(=O)N2CCC[C@H]2C(=O)N[C@H](C(N)=O)CSCC(=O)N[C@@H](Cc2ccccc2)C(=O)N[C@@H](Cc2ccc(C(N)=O)cc2)C(=O)N[C@@H](CCCNC(=N)N)C(=O)NCC1=O ({CH2CO}-F[Phe(4-CONH2)]RG[Sar]WPC-NH2; thioether N-8) | > 30 µM | – | –
CCCCCCN(CC(=O)N[C@@H](Cc1c[nH]c2ccccc12)C(N)=O)C(=O)CNC(=O)[C@H](CCCNC(=N)N)NC(C)=O (Ac-RG[NHexGly]W-NH2) | – | – | IC50 [3]: > 30 µM
CCCCCCN1CC(=O)N[C@@H](Cc2c[nH]c3ccccc23)C(=O)N2CCC[C@H]2C(=O)N[C@H](C(=O)NCC(N)=O)CSCC(=O)N[C@@H](Cc2ccccc2)C(=O)N[C@@H](Cc2ccc(C(N)=O)cc2)C(=O)N[C@@H](CCCNC(=N)N)C(=O)NCC1=O ({CH2CO}-F[Phe(4-CONH2)]RG[NHexGly]WPCG-NH2; thioether N-8) | – | > 100 µM | –
CCCCCCN1CC(=O)N[C@@H](C)C(=O)N2CCC[C@H]2C(=O)N[C@H](C(N)=O)CSCC(=O)N[C@@H](Cc2ccccc2)C(=O)N[C@@H](Cc2ccc(C(N)=O)cc2)C(=O)N[C@@H](CCCNC(=N)N)C(=O)NCC1=O ({CH2CO}-F[Phe(4-CONH2)]RG[NHexGly]APC-NH2; thioether N-8) | > 100 µM | – | –
